# Reference: patent US8377967B2, “Piperidine derivative” (Nippon Zoki Pharmaceutical Co., Ltd., priority 2008, dated 2013)
# Where a name gives a salt, the structure may show the parent alone.
# Target: human histamine H1 receptor (Homo sapiens, UniProt P35367)
# Assay: In vitro human histamine H1 receptor binding experiment ([3H]pyrilamine)
# Conditions: HEK293A cells stably expressing human histamine H1 receptor, [3H]pyrilamine 3 nmol/L, room temperature 60 minutes
# Method: Recombinant human histamine H1 receptor plasmid (prepared by Invitrogen) was transfected to HEK293A cells with Lipofectamine 2000 (manufactured by Invitrogen). Cells stably expressing human histamine H1 receptor were screened with Geneticin (manufactured by Invitrogen). The cells were continued to be cultured using a Dulbecco's Modified Eagle Medium containing 10% fetal bovine serum, 0.1 mmol/L MEM Non-Essential Amino Acids Solution, 2 mmol/L L-glutamine and 0.7 mg/mL Geneticin in a 5% CO2 incubator at 37° C. The cells stably expressing human histamine H1 receptor were prepared using 50 mmol/L Tris-HCl (pH 7.5) (hereinafter referred to as buffer) containing 0.1% bovine serum albumin, so as to have a concentration of 3×10^6 cells/mL, to give a cell sample preparation. Fifty microliters of the buffer, 50 μl of a test substance solution at various concentrations, and 50 μL of [^3H]pyrilamine solution (final concentration: 3 nmol/L) were added to each of the wells on the 96-well plate, and stirred, and 100 μL of the cell sample preparation was then added thereto (at a concentration of 3×10^5 cells/well) to initiate the reaction.
# The cells were incubated at room temperature for 60 minutes, and then filtered on UniFilter GF/C plate (manufactured by Packard) immersed in 0.5% polyethyleneimine using a cell harvester (IH-110, manufactured by INNOTECH CORPORATION), to stop the reaction, and the plate was washed with the buffer. The plate after washing was sufficiently dried, and 20 μL of a scintillator (MaxiLight, manufactured by Hidex) was added thereto, and count per minute (cpm) was measured with a multi-labeled microplate reader (Plate Chameleo II, manufactured by Hidex). The nonspecific binding was cpm in a case where 30 μmol/L pyrilamine was added. The experiments were carried out at n=3, and at least repeated 3 times.
# Sequence of human histamine H1 receptor (P35367 whole entry): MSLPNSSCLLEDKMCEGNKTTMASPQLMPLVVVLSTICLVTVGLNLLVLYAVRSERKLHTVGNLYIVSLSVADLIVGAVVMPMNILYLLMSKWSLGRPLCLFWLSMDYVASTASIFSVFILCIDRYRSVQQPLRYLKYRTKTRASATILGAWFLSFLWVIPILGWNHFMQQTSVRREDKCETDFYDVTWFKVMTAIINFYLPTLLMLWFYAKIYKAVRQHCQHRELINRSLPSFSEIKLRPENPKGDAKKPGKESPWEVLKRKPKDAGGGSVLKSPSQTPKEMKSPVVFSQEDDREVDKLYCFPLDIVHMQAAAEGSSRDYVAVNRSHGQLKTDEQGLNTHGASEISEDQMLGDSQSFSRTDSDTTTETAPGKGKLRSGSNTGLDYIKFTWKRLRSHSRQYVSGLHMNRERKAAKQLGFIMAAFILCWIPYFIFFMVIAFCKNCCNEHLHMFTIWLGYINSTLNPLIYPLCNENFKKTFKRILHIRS
row,IC50 [nM],Structure (SMILES)
1,15.2,"CC(=O)NCc1cc2c(s1)CCc1ccccc1C2=C1CCN(C)CC1 [Compound 20, 2-Acetylaminomethyl-4-(1-methylpiperidin-4-ylidene)-9,10-dihydro-4H-1-thiabenzo[f]azulene hydrochloride]"
2,3.5,"CCOC(=O)Cc1cc2c(s1)C(=C1CCN(C)CC1)c1ccccc1CC2 [Compound 23, Ethyl[4-(1-methylpiperidin-4-ylidene)-9,10-dihydro-4H-3-thiabenzo[f]azulen-2-yl]acetate hydrochloride]"
3,16.4,"CN1CCC(=C2c3ccccc3CCc3sc(C(N)=O)cc32)CC1 [Compound 31, [4-(1-Methylpiperidin-4-ylidene)-9,10-dihydro-4H-1-thiabenzo[f]azulen-2-yl]carboxamide]"
4,70.8,"COCCNC(=O)c1cc2c(s1)CCc1ccccc1C2=C1CCN(C)CC1 [Compound 38, N-(2-Methoxyethyl)-[4-(1-methylpiperidin-4-ylidene)-9,10-dihydro-4H-1-thiabenzo[f]azulen-2-yl]carboxamide hydrochloride]"
5,52.1,"CONC(=O)c1cc2c(s1)CCc1ccccc1C2=C1CCN(C)CC1 [Compound 40, N-Methoxy [4-(1-methylpiperidin-4-ylidene)-9,10-dihydro-4H-1-thiabenzo[f]azulen-2-yl]carboxamide hydrochloride]"
6,19.2,"CCOC(=O)c1cc2c(s1)C(=C1CCN(C)CC1)c1ccccc1OC2 [Compound 44, Ethyl[4-(1-methylpiperidin-4-ylidene)-4,10-dihydro-9-oxa-3-thiabenzo[f]azulen-2-yl]carboxylate hydrochloride]"
7,29.3,"CCOC(=O)C=Cc1cc2c(s1)C(=O)Cc1ccccc1C2=C1CCN(C)CC1 [Compound 47, Ethyl 3-[4-(1-methylpiperidin-4-ylidene)-10-oxo-9,10-dihydro-4H-1-thiabenzo[f]azulen-2-yl]acrylate]"
8,16.9,"CCOC(=O)c1cc2c(s1)C(=O)Cc1ccccc1C2=C1CCN(C)CC1 [Compound 50, Ethyl[4-(1-methylpiperidin-4-ylidene)-10-oxo-9,10-dihydro-4H-1-thiabenzo[f]azulen-2-yl]carboxylate]"
9,70.1,"CC(C(=O)O)c1ccc2c(c1)C(=C1CCN(C)CC1)c1sccc1CO2 (stereo not drawn) [Compound 57, 2-[4-(1-Methylpiperidin-4-ylidene)-4,10-dihydro-9-oxa-3-thiabenzo[f]azulen-6-yl]propionic acid hydrochloride]"
10,59.1,"CC(C(=O)O)c1cc2c(s1)C(=C1CCN(C)CC1)c1ccccc1CC2 (stereo not drawn) [Compound 60, 2-[4-(1-Methylpiperidin-4-ylidene)-9,10-dihydro-4H-3-thiabenzo[f]azulen-2-yl]propionic acid hydrochloride]"
11,42,"CN1CCC(=C2c3ccccc3CCc3sc(CC(=O)NCCO)cc32)CC1 [Compound 63, N-(2-Hydroxyethyl)-{[4-(1-methylpiperidin-4-ylidene)-9,10-dihydro-4H-1-thiabenzo[f]azulen-2-yl]}acetamide]"
12,48.6,"CC(C(=O)NCCO)c1ccc2c(c1)C(=C1CCN(C)CC1)c1sccc1CO2 (stereo not drawn) [Compound 64, N-(2-Hydroxyethyl)-{2-[4-(1-methylpiperidin-4-ylidene)-4,10-dihydro-9-oxa-3-thiabenzo[f]azulen-6-yl]}propionamide]"
13,93.3,"CC(O)CNC(=O)c1cc2c(s1)CCc1ccccc1C2=C1CCN(C)CC1 (stereo not drawn) [Compound 70, N-(2-Hydroxypropyl)-{[4-(1-methylpiperidin-4-ylidene)-9,10-dihydro-4H-1-thiabenzo[f]azulen-2-yl]}carboxamide]"
14,62,"CC(CO)NC(=O)c1cc2c(s1)CCc1ccccc1C2=C1CCN(C)CC1 (stereo not drawn) [Compound 71, N-(1-Hydroxyprop-2-yl)-{[4-(1-methylpiperidin-4-ylidene)-9,10-dihydro-4H-1-thiabenzo[f]azulen-2-yl]}carboxamide]"
15,70.9,"CN1CCC(=C2c3ccccc3CCc3sc(C(=O)N(C)O)cc32)CC1 [Compound 74, N-Hydroxy-N-methyl-{[4-(1-methylpiperidin-4-ylidene)-9,10-dihydro-4H-1-thiabenzo[f]azulen-2-yl]}carboxamide]"
16,74.8,"CCOC(=O)Nc1cc2c(s1)CCc1ccccc1C2=C1CCN(C)CC1 [Compound 75, 2-Ethoxycarbonylamino-4-(1-methylpiperidin-4-ylidene)-9,10-dihydro-4H-1-thiabenzo[f]azulene]"

row,IC50 [nM],Structure (SMILES)
1,37.8,"CN1CCC(=C2c3ccccc3CCc3sc(C(=O)NCCF)cc32)CC1 [Compound 77, N-(2-Fluoroethyl)-{[4-(1-methylpiperidin-4-ylidene)-9,10-dihydro-4H-1-thiabenzo[f]azulen-2-yl]}carboxamide]"
2,65.1,"CN1CCC(=C2c3ccccc3CCc3sc(C(=O)NO)cc32)CC1 [Compound 78, N-Hydroxy-{[4-(1-methylpiperidin-4-ylidene)-9,10-dihydro-4H-1-thiabenzo[f]azulen-2-yl]}carboxamide]"
3,28.2,"CN1CCC(=C2c3ccccc3CCc3sc(C(=O)NCC(F)(F)F)cc32)CC1 [Compound 79, N-(2,2,2-Trifluoroethyl)-{[4-(1-methylpiperidin-4-ylidene)-9,10-dihydro-4H-1-thiabenzo[f]azulen-2-yl]}carboxamide]"
4,69.9,"CN1CCC(=C2c3ccccc3CCc3sc(C(=O)NC(C)(C)CO)cc32)CC1 [Compound 80, N-(2-Methyl-1-hydroxyprop-2-yl)-{[4-(1-methylpiperidin-4-ylidene)-9,10-dihydro-4H-1-thiabenzo[f]azulen-2-yl]}carboxamide]"
5,38.4,"CON(C)C(=O)c1cc2c(s1)CCc1ccccc1C2=C1CCN(C)CC1 [Compound 84, N-Methyl-N-methoxy-{[4-(1-methylpiperidin-4-ylidene)-9,10-dihydro-4H-1-thiabenzo[f]azulen-2-yl]}carboxamide]"
6,27.5,"CCCNC(=O)c1cc2c(s1)CCc1ccccc1C2=C1CCN(C)CC1 [Compound 85, N-Propyl-{[4-(1-methylpiperidin-4-ylidene)-9,10-dihydro-4H-1-thiabenzo[f]azulen-2-yl]}carboxamide]"
7,21.2,"C=CCNC(=O)c1cc2c(s1)CCc1ccccc1C2=C1CCN(C)CC1 [Compound 86, N-Allyl-{[4-(1-methylpiperidin-4-ylidene)-9,10-dihydro-4H-1-thiabenzo[f]azulen-2-yl]}carboxamide]"
8,69,"N#CCCN1CCC(=C2c3ccccc3CCc3sc(C(=O)O)cc32)CC1 [Compound 94, {4-[1-(2-Cyanoethyl)piperidin-4-ylidene]-9,10-dihydro-4H-1-thiabenzo[f]azulen-2-yl}carboxylic acid]"
9,14.9,"CCOC(=O)c1ccc2c(c1)C(=C1CCN(C)CC1)c1ccsc1CC2 [Compound 95, Ethyl[4-(1-methylpiperidin-4-ylidene)-9,10-dihydro-4H-1-thiabenzo[f]azulen-6-yl]carboxylate]"
10,16.9,"CCOC(=O)CCc1cc2c(s1)CCc1ccccc1C2=C1CCN(C)CC1 [Compound 97, Ethyl 3-[4-(1-methylpiperidin-4-ylidene)-9,10-dihydro-4H-1-thiabenzo[f]azulen-2-yl]propionate]"
11,35.4,"CCOC(=O)c1cc2c(s1)CCc1ccccc1C2=C1CCN(CC)CC1 [Compound 103, Ethyl[4-(1-ethylpiperidin-4-ylidene)-9,10-dihydro-4H-1-thiabenzo[f]azulen-2-yl]carboxylate hydrochloride]"
12,4.8,"CN1CCC(=C2c3cc(CO)ccc3CCc3sccc32)CC1 [Compound 104, 6-(2-Hydroxymethyl)-4-(1-methylpiperidin-4-ylidene)-9,10-dihydro-4H-1-thiabenzo[f]azulene]"
13,50.2,"CCOC(=O)c1cc2c(s1)CCc1ccccc1C2=C1CCN(CCO)CC1 [Compound 105, Ethyl {4-[1-(2-hydroxyethyl)piperidin-4-ylidene]-9,10-dihydro-4H-1-thiabenzo[f]azulen-2-yl}carboxylate]"
14,7.04,"CCOC(=O)Cc1ccc2c(c1)C(=C1CCN(C)CC1)c1ccsc1CC2 [Compound 106, Ethyl[4-(1-methylpiperidin-4-ylidene)-9,10-dihydro-4H-1-thiabenzo[f]azulen-6-yl]acetate hydrochloride]"
15,23.4,"CCOC(=O)COCCN1CCC(=C2c3ccccc3CCc3sc(C(=O)OCC)cc32)CC1 [Compound 110, Ethyl {4-[1-(2-ethoxycarbonylmethoxyethyl)piperidin-4-ylidene]-9,10-dihydro-4H-1-thiabenzo[f]azulen-2-yl}carboxylate hydrochloride]"
16,1.94,"C=Cc1cc2c(s1)CCc1ccccc1C2=C1CCN(C)CC1 [Compound 112, 2-Vinyl-4-(1-methylpiperidin-4-ylidene)-9,10-dihydro-4H-1-thiabenzo[f]azulene]"

row,Structure (SMILES),IC50 [nM]
1,"CN1CCC(=C2c3ccccc3CCc3cc(NC(=O)OC(C)(C)C)sc32)CC1 [Compound 10, 2-t-Butoxycarbonylamino-4-(1-methylpiperidin-4-ylidene)-9,10-dihydro-4H-3-thiabenzo[f]azulene]",88.5
